In patent publication US20250346600A1, “TRICYCLIC DERIVATIVES AND RELATED USES” (MOMA Therapeutics, Inc., priority 2023, published 2025) one finds AC50 data, which are given here for 17 compounds.

Test [1] addresses T1, Full length WRN protein (aa 2-1432) (Homo sapiens (Human), UniProt Q14191). The experiment in a line: WRN ATPase ADP-Glo biochemical assay, Assay Format A (10 μM ATP). The conditions noted are these: 0.25 nM WRN, 100 nM C6.18 ssDNA, 30 min preincubation, read-out: ATPase ADPGlo AC50 (uM)- Assay Format A. Put shortly:
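ADP-Glo luminescence measured hydrolysis of ATP by purified, baculovirus-expressed N-terminally tagged full-length WRN. Enzyme (0.5 nM) was preincubated 30 min with compound, then 200 nM ssDNA C6.18 plus 20 μM ATP were added (pre-mix levels) for 30 min at RT. IC50s come from four-parameter fits, geometric mean of at least two trials.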

The subject of the next test is HCT116 cells. Briefly: HCT116 (MSI) 7 day viability, CellTiter Glo. The class given is cell-based. The following applies: 7 days, read-out: HCT116 (MSI) Viability 7 Day Abs AC50. The method in brief: (§1)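 10 mM DMSO stocks serially diluted 3-fold, 10 steps; cells added (HCT116 50/well, HT29 500/well); 7 d, 37 °C, 5% CO2; CellTiter Glo 20 min RT; luminescence.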
For test [2], the target named is T1, Full length WRN protein (aa 2-1432). The experiment in a line: WRN ATPase ADP-Glo biochemical assay, Assay Format B (100 μM ATP). The following applies: 0.25 nM WRN, 100 nM C6.18 ssDNA, 60 min preincubation, read-out: ATPase ADPGlo AC50 (uM)- Assay Format B.
For another test, the system named is HT29 cells. The experiment in a line: HT29 (MSS) 7 day viability, CellTiter Glo. Type of test: cell-based. The conditions noted are these: 7 days, read-out: HT29 (MSS) Viability 7 Day CTGAbs AC50. The method in brief:
as §1

Structures are written as SMILES. Like-named read-outs stand apart in the source and are kept apart here. Some results are limits rather than exact numbers.

T1 sequence (Q14191 2-1432): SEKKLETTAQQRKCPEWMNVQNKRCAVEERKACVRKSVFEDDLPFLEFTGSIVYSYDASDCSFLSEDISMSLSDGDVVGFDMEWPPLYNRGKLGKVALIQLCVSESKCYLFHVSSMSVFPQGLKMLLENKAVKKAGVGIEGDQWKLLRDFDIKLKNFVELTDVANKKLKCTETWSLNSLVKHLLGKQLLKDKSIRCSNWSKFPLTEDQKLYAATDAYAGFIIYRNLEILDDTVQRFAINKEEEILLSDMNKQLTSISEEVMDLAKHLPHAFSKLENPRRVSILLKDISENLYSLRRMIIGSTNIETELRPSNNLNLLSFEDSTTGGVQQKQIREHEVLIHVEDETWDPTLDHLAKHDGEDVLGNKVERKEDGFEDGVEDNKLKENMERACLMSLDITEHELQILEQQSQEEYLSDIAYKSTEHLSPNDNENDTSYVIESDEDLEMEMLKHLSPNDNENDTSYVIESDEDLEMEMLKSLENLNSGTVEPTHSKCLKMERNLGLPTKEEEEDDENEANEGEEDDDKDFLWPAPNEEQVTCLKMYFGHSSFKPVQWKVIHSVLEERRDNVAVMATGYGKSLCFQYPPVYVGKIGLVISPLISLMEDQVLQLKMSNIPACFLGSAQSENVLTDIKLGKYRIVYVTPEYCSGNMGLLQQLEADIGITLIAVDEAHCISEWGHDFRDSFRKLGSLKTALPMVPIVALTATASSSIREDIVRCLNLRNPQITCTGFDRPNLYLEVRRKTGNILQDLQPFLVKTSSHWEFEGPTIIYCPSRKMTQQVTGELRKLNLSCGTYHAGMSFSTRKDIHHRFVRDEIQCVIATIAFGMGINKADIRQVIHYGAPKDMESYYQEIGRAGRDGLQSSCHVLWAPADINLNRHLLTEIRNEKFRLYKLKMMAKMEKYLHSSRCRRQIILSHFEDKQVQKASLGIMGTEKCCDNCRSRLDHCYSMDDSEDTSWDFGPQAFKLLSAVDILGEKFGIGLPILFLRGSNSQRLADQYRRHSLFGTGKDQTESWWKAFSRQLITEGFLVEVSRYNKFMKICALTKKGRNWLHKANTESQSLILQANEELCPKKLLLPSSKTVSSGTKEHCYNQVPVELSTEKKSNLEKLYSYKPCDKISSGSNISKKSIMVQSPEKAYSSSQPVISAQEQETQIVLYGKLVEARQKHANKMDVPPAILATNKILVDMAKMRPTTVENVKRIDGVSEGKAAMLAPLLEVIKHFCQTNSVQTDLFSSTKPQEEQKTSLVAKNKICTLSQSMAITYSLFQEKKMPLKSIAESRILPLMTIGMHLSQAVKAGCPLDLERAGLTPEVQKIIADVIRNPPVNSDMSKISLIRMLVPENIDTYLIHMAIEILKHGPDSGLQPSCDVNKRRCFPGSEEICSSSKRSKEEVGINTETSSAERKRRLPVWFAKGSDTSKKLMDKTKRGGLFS

Turning to `C=CC(=O)N1CC(O)c2nn(-c3ccc(C4CCC4)cc3)c3c2C(C1)N(C(=O)c1ccc(Br)c2[nH]c(C(F)F)nc12)CC3` (centres unmarked) [Compound 160, 1-(5-(7-bromo-2-(difluoromethyl)-1H-benzo[d]imidazole-4-carbonyl)-2-(4-cyclobutylphenyl)-9-hydroxy-2,3,4,5,5a,6,8,9-octahydro-7H-1,2,5,7-tetraazabenzo[cd]azulen-7-yl)prop-2-en-1-one], the AC50 is below 0.0015 µM in test [1]; 1 to 100 nM with HCT116 cells (Homo sapiens, HCT-116, 168 h); 0.0015 to 0.005 µM in test [2]; above 3000 nM with HT29 cells (Homo sapiens, HT-29, 168 h).
On the same counts, the results for `C=CC(=O)N1CCc2nn(-c3ccc(C4CCC4)cc3)c3c2C(C1)N(C(=O)c1cnc(C(F)(F)F)nc1N)CC3` (centres unmarked) [Compound 161, 1-(5-(4-amino-2-(trifluoromethyl)pyrimidine-5-carbonyl)-2-(4-cyclobutylphenyl)-2,3,4,5,5a,6,8,9-octahydro-7H-1,2,5,7-tetraazabenzo[cd]azulen-7-yl)prop-2-en-1-one] are below 0.0015 µM, 1 to 100 nM, 0.005 to 0.015 µM and above 3000 nM.
Turning to `C=CC(=O)N1CCc2nn(-c3ccc(C4CC4)cc3)c3c2C(C1)N(C(=O)c1cnc(Cl)cc1N)CC3` (centres unmarked) [Compound 162, 1-(5-(4-amino-6-chloronicotinoyl)-2-(4-cyclopropylphenyl)-2,3,4,5,5a,6,8,9-octahydro-7H-1,2,5,7-tetraazabenzo[cd]azulen-7-yl)prop-2-en-1-one], the AC50 in test [1] is below 0.0015 µM; in the test on HCT116 cells, 1 to 100 nM; in test [2] it was 0.005 to 0.015 µM; in the test with HT29 cells it was above 3000 nM.
With `C=CC(=O)N1CCc2nn(-c3ccc(C4CC4)cc3O)c3c2C(C1)N(C(=O)c1cnc(C(F)(F)F)cc1N)CC3` (centres unmarked) [Compound 163, 1-(5-(4-amino-6-(trifluoromethyl)nicotinoyl)-2-(4-cyclopropyl-2-hydroxyphenyl)-2,3,4,5,5a,6,8,9-octahydro-7H-1,2,5,7-tetraazabenzo[cd]azulen-7-yl)prop-2-en-1-one], the AC50 is below 0.0015 µM in test [1]; 1 to 100 nM in the test with HCT116 cells (Homo sapiens, HCT-116, 168 h); 0.005 to 0.015 µM in test [2]; above 3000 nM in the test with HT29 cells (Homo sapiens, HT-29, 168 h).
Taken in the same sequence, the figures for `C=CC(=O)N1CCc2nn(-c3ccc(C4CC4)cc3)c3c2C(C1)N(C(=O)c1cnc(Br)cc1N)CC3` (centres unmarked) [Compound 166, 1-(5-(4-amino-6-bromonicotinoyl)-2-(4-cyclopropylphenyl)-2,3,4,5,5a,6,8,9-octahydro-7H-1,2,5,7-tetraazabenzo[cd]azulen-7-yl)prop-2-en-1-one] were below 0.0015 µM, 1 to 100 nM, 0.005 to 0.015 µM and above 3000 nM.
As for `C=CC(=O)N1CCc2nn(-c3ccc(C4CC4)cc3)c3c2C(C1)N(C(=O)c1ccc(Cl)nc1N)CC3` (centres unmarked) [Compound 167, 1-(5-(2-amino-6-chloronicotinoyl)-2-(4-cyclopropylphenyl)-2,3,4,5,5a,6,8,9-octahydro-7H-1,2,5,7-tetraazabenzo[cd]azulen-7-yl)prop-2-en-1-one], the AC50 in test [1] is below 0.0015 µM; in the test on HCT116 cells (Homo sapiens, HCT-116, 168 h) it was 1 to 100 nM; in test [2], 0.015 to 0.055 µM; in the test with HT29 cells (Homo sapiens, HT-29, 168 h), above 3000 nM.
Consider `C=CC(=O)N1CCc2nn(-c3ccc(C(C)C)cc3O)c3c2C(C1)N(C(=O)c1ccc(Br)c2[nH]c(C(F)F)nc12)CC3` (centres unmarked) [Compound 174, 1-(5-(7-bromo-2-(difluoromethyl)-1H-benzo[d]imidazole-4-carbonyl)-2-(2-hydroxy-4-isopropylphenyl)-2,3,4,5,5a,6,8,9-octahydro-7H-1,2,5,7-tetraazabenzo[cd]azulen-7-yl)prop-2-en-1-one], for which the AC50 in test [1] was below 0.0015 µM; in the test with HCT116 cells (Homo sapiens, HCT-116, 168 h), 1 to 100 nM; in test [2], 0.0015 to 0.005 µM; with HT29 cells (Homo sapiens, HT-29, 168 h) it was above 3000 nM.
Turning to `C=CC(=O)N1CCc2nn(-c3ccc(C4CC4)cc3)c3c2C(C1)N(C(=O)c1cnc(C(F)(F)F)c(F)c1N)CC3` (centres unmarked) [Compound 178, 1-(5-(4-amino-5-fluoro-6-(trifluoromethyl)nicotinoyl)-2-(4-cyclopropylphenyl)-2,3,4,5,5a,6,8,9-octahydro-7H-1,2,5,7-tetraazabenzo[cd]azulen-7-yl)prop-2-en-1-one], the AC50 was below 0.0015 µM in test [1]; 1 to 100 nM in the test on HCT116 cells (Homo sapiens, HCT-116, 168 h); 0.005 to 0.015 µM in test [2]; above 3000 nM in the test on HT29 cells (Homo sapiens, HT-29, 168 h).
For `C=CC(=O)N1CCc2nn(-c3ccc(C4CC4)cc3)c3c2C(C1)N(C(=O)c1cnc(Cl)c(F)c1N)CC3` (centres unmarked) [Compound 181, 1-(5-(4-amino-6-chloro-5-fluoronicotinoyl)-2-(4-cyclopropylphenyl)-2,3,4,5,5a,6,8,9-octahydro-7H-1,2,5,7-tetraazabenzo[cd]azulen-7-yl)prop-2-en-1-one], the AC50 is below 0.0015 µM in test [1]; 1 to 100 nM in the test on HCT116 cells (Homo sapiens, HCT-116, 168 h); 0.0015 to 0.005 µM in test [2]; above 3000 nM in the test on HT29 cells (Homo sapiens, HT-29, 168 h).
Consider `C=CC(=O)N1CCc2nn(-c3ccc(C4CC4)cc3)c3c2C(C1)N(C(=O)c1cnc(Br)c(F)c1N)CC3` (centres unmarked) [Compound 182, 1-(5-(4-amino-6-bromo-5-fluoronicotinoyl)-2-(4-cyclopropylphenyl)-2,3,4,5,5a,6,8,9-octahydro-7H-1,2,5,7-tetraazabenzo[cd]azulen-7-yl)prop-2-en-1-one], for which the AC50 in test [1] is below 0.0015 µM; with HCT116 cells (Homo sapiens, HCT-116, 168 h), 1 to 100 nM; in test [2], 0.0015 to 0.005 µM; in the test on HT29 cells (Homo sapiens, HT-29, 168 h), above 3000 nM.
In the case of `C=CC(=O)N1CCc2nn(-c3ccc(C4CC4)cc3)c3c2C(C1)N(C(=O)c1cnc(C(C)(F)F)cc1N)CC3` (centres unmarked) [Compound 183, 1-(5-(4-amino-6-(1,1-difluoroethyl)nicotinoyl)-2-(4-cyclopropylphenyl)-2,3,4,5,5a,6,8,9-octahydro-7H-1,2,5,7-tetraazabenzo[cd]azulen-7-yl)prop-2-en-1-one], the AC50 in test [1] is below 0.0015 µM; with HCT116 cells (Homo sapiens, HCT-116, 168 h), 1 to 100 nM; in test [2], 0.0015 to 0.005 µM; in the test on HT29 cells (Homo sapiens, HT-29, 168 h), above 3000 nM.
Taken in the same sequence, the figures for `C=CC(=O)N1CC(O)c2nn(-c3ccc(C4CC4)cc3)c3c2C(C1)N(C(=O)c1cnc(C(F)(F)F)cc1N)CC3` (centres unmarked) [Compound 184, 1-(5-(4-amino-6-(trifluoromethyl)nicotinoyl)-2-(4-cyclopropylphenyl)-9-hydroxy-2,3,4,5,5a,6,8,9-octahydro-7H-1,2,5,7-tetraazabenzo[cd]azulen-7-yl)prop-2-en-1-one] were below 0.0015 µM, 1 to 100 nM, 0.005 to 0.015 µM and above 3000 nM.
Consider `C=CC(=O)N1CCc2nn(-c3ccc(C4CC4)cc3)c3c2C(C1)N(C(=O)c1c(N)cc(C(F)(F)F)nc1N)CC3` (centres unmarked) [Compound 186, 1-(2-(4-cyclopropylphenyl)-5-(2,4-diamino-6-(trifluoromethyl)nicotinoyl)-2,3,4,5,5a,6,8,9-octahydro-7H-1,2,5,7-tetraazabenzo[cd]azulen-7-yl)prop-2-en-1-one], for which the concentration at half-maximal activity (AC50) in test [1] is below 0.0015 µM; in the test on HCT116 cells (Homo sapiens, HCT-116, 168 h) it was 1 to 100 nM; in test [2], 0.005 to 0.015 µM; in the test on HT29 cells (Homo sapiens, HT-29, 168 h), above 3000 nM.
Taken in the same sequence, the figures for `C=CC(=O)N1CC(OC)c2nn(-c3ccc(C4CC4)cc3)c3c2C(C1)N(C(=O)c1cnc(C(F)(F)F)cc1N)CC3` (centres unmarked) [Compound 187, 1-(5-(4-amino-6-(trifluoromethyl)nicotinoyl)-2-(4-cyclopropylphenyl)-9-methoxy-2,3,4,5,5a,6,8,9-octahydro-7H-1,2,5,7-tetraazabenzo[cd]azulen-7-yl)prop-2-en-1-one] were below 0.0015 µM, 1 to 100 nM, 0.005 to 0.015 µM and above 3000 nM.
Take `C=CC(=O)N1CC(C)c2nn(-c3ccc(C4CC4)cc3O)c3c2C(C1)N(C(=O)c1cnc(C(F)(F)F)cc1N)CC3` (centres unmarked) [Compound 189, 1-(5-(4-amino-6-(trifluoromethyl)nicotinoyl)-2-(4-cyclopropyl-2-hydroxyphenyl)-9-methyl-2,3,4,5,5a,6,8,9-octahydro-7H-1,2,5,7-tetraazabenzo[cd]azulen-7-yl)prop-2-en-1-one]: the AC50 in test [1] was below 0.0015 µM; in the test with HCT116 cells (Homo sapiens, HCT-116, 168 h), 1 to 100 nM; in test [2], 0.005 to 0.015 µM; with HT29 cells (Homo sapiens, HT-29, 168 h), above 3000 nM.
Take `C=CC(=O)N1CCc2nn(-c3ccc(C4CC4)cc3O)c3c2C(C1)N(C(=O)c1cnc(OC(F)F)cc1N)CC3` (centres unmarked) [Compound 192, 1-(5-(4-amino-6-(difluoromethoxy)nicotinoyl)-2-(4-cyclopropyl-2-hydroxyphenyl)-2,3,4,5,5a,6,8,9-octahydro-7H-1,2,5,7-tetraazabenzo[cd]azulen-7-yl)prop-2-en-1-one]: the AC50 in test [1] is below 0.0015 µM; with HCT116 cells (Homo sapiens, HCT-116, 168 h), 1 to 100 nM; in test [2], 0.005 to 0.015 µM; in the test with HT29 cells (Homo sapiens, HT-29, 168 h), above 3000 nM.
Taken in the same sequence, the figures for `C=CC(=O)N1CCc2nn(-c3ccc(C4CC4)cc3O)c3c2C(C1)N(C(=O)c1ccc(Br)nc1N)CC3` (centres unmarked) [Compound 193, 1-(5-(2-amino-6-bromonicotinoyl)-2-(4-cyclopropyl-2-hydroxyphenyl)-2,3,4,5,5a,6,8,9-octahydro-7H-1,2,5,7-tetraazabenzo[cd]azulen-7-yl)prop-2-en-1-one] were below 0.0015 µM, 1 to 100 nM, 0.005 to 0.015 µM and above 3000 nM.
